Assay results published in US20050113455A1, “Method and composition for amelioration of pain” (priority 2003, published 2005).

What was measured:
[1] = test system: visceral nociception (stretching) in mice; assay: Murine visceral pain model: stretching in mouse i.p. acetic acid test; format: in vivo; settings: for Potency at inhibiting visceral nociception relative to morphine: mouse i.p. acetic acid test, dose-response relationships; for MED (minimum dose at which the number of stretches during the observation period is significantly different from saline controls): mouse, s.c. administration, 0.6% acetic acid i.p., 30 min observation
Method: Dose-response relationships for the polyamines listed in Table 1 were performed in the mouse i.p. acetic acid test.
Assessment of Candidate Agents in a Murine Visceral Pain Model: There is an extensive literature on visceral pain in the acetic acid mouse model (Bidlack J M, Cohen D J, McLaughlin J P, Lou R, Ye Y, Wentland M P. 8-carboxamidocyclazocine: A long-acting, novel benzomorphan. J Pharmacol Exp Ther. 2002;302:374-380; Reichert J A, Daughters R S, Rivard R, Simone D A. Peripheral and preemptive opioid antinociception in a mouse visceral pain model. Pain. 2001;89:221-227; Farzin D, Asghari L, Nowrouzi M. Rodent antinociception following acute treatment with different histamine receptor agonists and antagonists. Pharmacol Biochem Behav. 2002;72:751-760; Hinschberger A, Butt 5, Lelong V, Boulouard M, Dumuis A, Dauphin F, Bureau R, Pfeiffer B, Renard P, Rault S. New benzo[h][1,6]naphthyridine and azepino[3,2-c]quinoline derivatives as selective antagonists of 5-ht4 receptors: Binding profile and pharmacological characterization. J Med Chem. 2003;46:138-147).
The mice receive either an s.c. or i.p. injection (0.3 mL) of either saline or a test drug at varying doses. Fifteen to thirty minutes following the treatment, the animals receive an i.p. injection of 0.6% acetic acid in saline (sterile, 0.3 mL). The mice are then placed into holding cages and observed for 30 mm. The number of stretches the animals make following the acetic acid injections are counted. A stretch is identified by the animal extending its hind legs well behind its body. This posture is rarely seen in a non-injected animal.

[2] = cited from earlier work

Compound | MED (minimum dose at which the number of stretches during the observation period is significantly different from saline controls) [1] | Effectiveness in the murine visceral pain model (in words) [1] | other results
CCNCCCN[C@H]1CC[C@H](NCCCNCC)CC1 [CHX(3,4,3)-trans, N,N′-bis[3-(ethylamino)propyl]-trans-1,4-cyclohexanediamine] | 0.0037 mg/kg s.c. | – | Potency at inhibiting visceral nociception relative to morphine [1]: more than three orders of magnitude more potent than morphine
CCCCNCCCNCCCCNCCCNCCCC [DBSPM, N^1N^11-dibutylspermine] | 0.12 mg/kg s.c. | – | –
CCNCCCCNCCCCNCCCCNCC [DEHSPM, N^1,N^14-diethylhomospermine] | – | highly effective | Cognitive effects in human clinical trials [2]: lack of cognitive effects; Potency at inhibiting visceral nociception relative to morphine [1]: equipotent to morphine
CCNCCCNCCCNCCCNCC [DENSPM, N^1,N^11-diethylnorspermine] | 0.37 mg/kg s.c. | highly effective | –
CCNCCCNCCCCNCCCNCC [DESPM, N^1,N^12-diethylspermine] | – | less so | –
CC(C)NCCCNCCCCNCCCNC(C)C [DIPSPM, N^1N^12-diisopropylspermime] | – | less so | –
C(CCNC1CCNCC1)CNC1CCNCC1 [PIP(3,4,3), N,N′-bis(4-piperidinyl)-1,4-butanediamine] | – | less so | –
CN1CC[C@]23c4c5ccc(O)c4O[C@H]2[C@@H](O)C=C[C@H]3[C@H]1C5 [morphine, reference compound] | – | – | Overt cognitive / behavioural effects in mice ([1]; observed during mouse i.p. acetic acid test): produced stereotypical opiate induced hyperactivity and Straub tail
dihydroxydiethylnorspermine [(HO)2DENSPM] | 0.0037 mg/kg s.c. | – | –
